This note sets out measurements from EP4563586A1, “NEW INHIBITORS OF LRRK2/PP1 INTERACTION” (Université Paris Cité, priority 2023, dated 2025).

Non-standard residues stand in square brackets, D forms with d. Residues, ends and D or L forms follow the SMILES beside them. No end group written: not given here. Ahx = NCCCCCC(=O)O

The nature of data set [1]: Peptide stability in human serum (MALDI-TOF). It is filed as in vitro ADME. Particulars: for remaining at 24 h, 100 µM: after 24h of incubation at 37°C in human serum, 100 µM (Figure 6), read-out: peptide still present. On the procedure:
The peptides were incubated at 37°C in 250 µL of human serum (Gibco) for different periods of time. Samples were collected and peptide degradation stopped by freezing at -20°C. The peptide was extracted from samples using the Proteo Miner Protein Enrichment System (Bio-Rad). The percentage of intact peptide was estimated by MS using MALDI-TOFF using the protocol previously described (Bruker Autoflex II) according to the manufacturer's instructions. Measurements were performed in triplicate. MS data were analysed using the software Cliprot tools, Flex analysis, Bruker.

Data set [2] concerns the target T1, Leucine-rich repeat kinase 2 (LRRK2), human (human, UniProt Q5S007 1-2527).
T1 construct: Protein as present in MDA-MB231 lysates; also called dardarin
The data set can be described thus: PP1 dodecapeptide array on cellulose membrane.

T1 sequence (Q5S007 whole entry R50H/L212S): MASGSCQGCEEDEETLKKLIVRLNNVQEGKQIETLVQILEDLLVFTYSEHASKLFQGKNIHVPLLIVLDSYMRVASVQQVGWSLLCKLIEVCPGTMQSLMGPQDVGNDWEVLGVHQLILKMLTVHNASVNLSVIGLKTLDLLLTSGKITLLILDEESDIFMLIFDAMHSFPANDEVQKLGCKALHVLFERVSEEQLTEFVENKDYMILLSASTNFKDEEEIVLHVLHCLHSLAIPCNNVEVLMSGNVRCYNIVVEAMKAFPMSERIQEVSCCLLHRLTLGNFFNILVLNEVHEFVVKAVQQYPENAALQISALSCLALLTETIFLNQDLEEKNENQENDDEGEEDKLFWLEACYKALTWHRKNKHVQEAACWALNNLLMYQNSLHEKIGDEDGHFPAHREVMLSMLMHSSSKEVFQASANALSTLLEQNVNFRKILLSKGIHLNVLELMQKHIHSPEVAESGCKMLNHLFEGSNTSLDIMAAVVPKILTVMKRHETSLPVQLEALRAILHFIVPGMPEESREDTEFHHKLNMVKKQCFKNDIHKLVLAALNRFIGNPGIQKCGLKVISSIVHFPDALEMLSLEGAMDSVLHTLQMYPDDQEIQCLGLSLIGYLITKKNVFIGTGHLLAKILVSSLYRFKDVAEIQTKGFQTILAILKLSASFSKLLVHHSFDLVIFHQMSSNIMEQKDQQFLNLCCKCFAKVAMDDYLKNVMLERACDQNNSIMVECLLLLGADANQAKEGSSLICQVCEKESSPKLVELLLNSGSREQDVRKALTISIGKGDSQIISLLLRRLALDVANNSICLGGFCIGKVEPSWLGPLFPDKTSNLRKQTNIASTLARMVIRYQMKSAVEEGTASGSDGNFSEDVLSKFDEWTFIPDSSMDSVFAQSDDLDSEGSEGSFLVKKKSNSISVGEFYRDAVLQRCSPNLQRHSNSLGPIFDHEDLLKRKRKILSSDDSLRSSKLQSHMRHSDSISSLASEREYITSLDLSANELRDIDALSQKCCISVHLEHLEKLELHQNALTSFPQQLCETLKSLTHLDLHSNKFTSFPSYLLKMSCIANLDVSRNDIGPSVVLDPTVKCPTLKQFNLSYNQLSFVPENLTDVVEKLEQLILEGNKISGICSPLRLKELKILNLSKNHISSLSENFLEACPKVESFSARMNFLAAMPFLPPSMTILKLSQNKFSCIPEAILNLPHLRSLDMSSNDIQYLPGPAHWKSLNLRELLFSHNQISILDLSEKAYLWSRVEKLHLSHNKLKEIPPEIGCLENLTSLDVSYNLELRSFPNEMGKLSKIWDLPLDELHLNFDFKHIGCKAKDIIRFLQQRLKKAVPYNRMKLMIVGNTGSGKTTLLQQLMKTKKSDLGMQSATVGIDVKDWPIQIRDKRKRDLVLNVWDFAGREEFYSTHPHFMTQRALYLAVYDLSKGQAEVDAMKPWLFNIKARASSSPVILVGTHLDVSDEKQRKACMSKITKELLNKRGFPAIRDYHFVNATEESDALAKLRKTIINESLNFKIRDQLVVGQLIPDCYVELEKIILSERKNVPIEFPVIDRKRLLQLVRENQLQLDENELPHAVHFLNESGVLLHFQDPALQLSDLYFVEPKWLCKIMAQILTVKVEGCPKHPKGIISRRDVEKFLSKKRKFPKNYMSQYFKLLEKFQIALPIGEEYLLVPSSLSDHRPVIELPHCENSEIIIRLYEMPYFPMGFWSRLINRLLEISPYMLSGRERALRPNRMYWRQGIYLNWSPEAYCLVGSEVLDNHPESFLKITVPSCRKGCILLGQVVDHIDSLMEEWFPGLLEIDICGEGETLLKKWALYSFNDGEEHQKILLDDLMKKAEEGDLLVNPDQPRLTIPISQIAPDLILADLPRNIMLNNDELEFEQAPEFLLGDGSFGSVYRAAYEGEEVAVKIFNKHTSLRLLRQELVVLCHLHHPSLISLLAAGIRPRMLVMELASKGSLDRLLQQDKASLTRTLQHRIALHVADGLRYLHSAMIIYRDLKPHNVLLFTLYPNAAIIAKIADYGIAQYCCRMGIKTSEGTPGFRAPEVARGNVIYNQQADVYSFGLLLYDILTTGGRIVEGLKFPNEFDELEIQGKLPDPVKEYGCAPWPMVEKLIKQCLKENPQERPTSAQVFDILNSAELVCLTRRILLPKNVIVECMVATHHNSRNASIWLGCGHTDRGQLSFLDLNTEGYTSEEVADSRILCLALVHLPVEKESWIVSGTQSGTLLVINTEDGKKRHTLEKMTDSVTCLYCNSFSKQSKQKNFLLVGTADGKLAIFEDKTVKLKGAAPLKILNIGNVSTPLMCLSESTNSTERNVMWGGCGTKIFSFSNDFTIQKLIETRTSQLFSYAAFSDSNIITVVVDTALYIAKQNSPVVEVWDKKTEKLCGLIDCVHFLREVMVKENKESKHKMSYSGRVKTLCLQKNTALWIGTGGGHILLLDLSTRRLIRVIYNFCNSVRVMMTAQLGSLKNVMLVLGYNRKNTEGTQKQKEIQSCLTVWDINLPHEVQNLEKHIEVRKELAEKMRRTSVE

With `CC[C@H](C)[C@H](NC(=O)[C@H](CCC(=O)O)NC(=O)[C@H](CC(C)C)NC(=O)[C@H](CC(C)C)NC(=O)[C@H](CCCNC(=N)N)NC(=O)[C@H](CC(N)=O)NC(=O)[C@@H](NC(=O)[C@H](CC(C)C)NC(=O)[C@H](CCCNC(=N)N)NC(=O)[C@H](CO)NC(=O)[C@H](Cc1c[nH]c2ccccc12)NC(=O)[C@H](Cc1ccccc1)NC(=O)CN)[C@@H](C)CC)C(=O)NCCCCCC(=O)N[C@@H](CO)C(=O)N[C@@H](CCCNC(=N)N)C(=O)N[C@@H](CCCNC(=N)N)C(=O)N[C@H](C(=O)N[C@H](C(=O)N[C@@H](CO)C(=O)N[C@@H](CCCNC(=N)N)C(=O)N[C@@H](C)C(=O)N[C@@H](CCCCN)C(=O)N[C@@H](CC(C)C)C(=O)N[C@@H](C)C(=O)N[C@@H](C)C(=O)N[C@@H](C)C(=O)N[C@@H](CC(C)C)C(=O)O)[C@@H](C)CC)C(C)C` [Peptide 1, GFWSRLINRLLEI- AHx -SRRVISRAKLAAAL] (H-GFWSRLINRLLEI[Ahx]SRRVISRAKLAAAL-OH), the remaining at 24 h, 100 µM in data set [1] was over 90%. The “stability in serum (resistance to proteases)” value in data set [1] (human serum, 37°C, result in words) is reported as “particularly high”.

For the molecule “GFWSRLINRLLEIGGSSRRVISRAKLAAAL [Peptide 2, GFWSRLINRLLEI- GGS -SRRVISRAKLAAAL]”, the remaining at 24 h, 100 µM in data set [1] is over 90%.

B1: Peptide 20 (AEVVAKFLHKHDLDLICRAH), fragment of PP1 (peptide)
peptide: AEVVAKFLHKHDLDLICRAH
notes: Synthetic peptide, isolated fragment of PP1
B1: the binding result in data set [2] is reported as “binds”.

B2: Peptide 19 (VQGSRPGKNVQLTENE), fragment of PP1 (peptide)
peptide: VQGSRPGKNVQLTENE
notes: as for B1
For the molecule B2, the binding result in data set [2] was “binds”.

B3: Peptide 21 (NPGGRPITPPRNSAKAKK), fragment of PP1 (peptide)
peptide: NPGGRPITPPRNSAKAKK
notes: as for B1
As for B3, the binding result in data set [2] is “binds”.
